# Tests used:
# Human CARM1 (PRMT4) = biological target: T1, Human CARM1 (PRMT4) (Homo sapiens, UniProt Q86X55); assay: CARM1 enzyme assay on peptide substrates (3H-SAM Flashplate); details: Biochemical assay; CARM1 0.25 nM, 3H-SAM 30 nM, peptide 250 nM; read-out: Biochem IC50
# T1 construct: Flag-CARM1-His was eluted with 200 ug/ml FLAG peptide in buffer A; made in house; host or cells: HEK 293F cells infected with recombinant baculovirus (pFastBacMam)
# T1 sequence (Q86X55 1-585 isoform Q86X55-1): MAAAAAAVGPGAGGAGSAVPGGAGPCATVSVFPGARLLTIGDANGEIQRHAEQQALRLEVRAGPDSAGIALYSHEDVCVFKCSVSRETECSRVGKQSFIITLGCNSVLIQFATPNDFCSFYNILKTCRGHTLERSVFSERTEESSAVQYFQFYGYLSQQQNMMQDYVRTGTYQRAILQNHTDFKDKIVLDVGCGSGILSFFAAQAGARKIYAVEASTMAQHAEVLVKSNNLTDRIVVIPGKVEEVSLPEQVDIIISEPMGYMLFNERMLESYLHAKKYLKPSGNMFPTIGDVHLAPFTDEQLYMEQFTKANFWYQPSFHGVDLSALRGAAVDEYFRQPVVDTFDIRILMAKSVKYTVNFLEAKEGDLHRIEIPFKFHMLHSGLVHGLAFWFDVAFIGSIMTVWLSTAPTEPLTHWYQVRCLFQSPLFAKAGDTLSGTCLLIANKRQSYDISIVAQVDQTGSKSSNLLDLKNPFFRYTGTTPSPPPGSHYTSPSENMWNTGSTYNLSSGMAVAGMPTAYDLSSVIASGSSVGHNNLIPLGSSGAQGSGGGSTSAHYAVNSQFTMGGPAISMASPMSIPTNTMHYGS
# [1] = test system: asymmetric di-methyl PABP1 in RKO cells; assay: RKO methylation assay: In Cell Western (ICW) for asymmetric di-methyl PABP1 (PABP1me2a); details: Homo sapiens, RKO, 48 h, Cellular-based (PABP1me2a) ICW (In Cell Western) assay
# In short: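 In-cell western on compound-exposed RKO cells (48 hours): asymmetric di-methyl PABP1 detected by antibody at 800 nm, DNA content by DRAQ5 at 700 nm. Percent inhibition from signal ratios against DMSO (minimum) and 20 μM reference compound (maximum) wells; IC50 curves fitted from triplicates.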
SMILES,IC50 (Human CARM1 (PRMT4)) [µM],IC50 [1] [µM]
CNC[C@@H](O)COc1ccc(Cl)c(-c2nc(-c3c(C)c(Br)nn3C)c(C)c(N3CC4(CC(C#N)C4)C3)n2)c1 [Example 333],0.00246,0.0644
CNC[C@@H](O)COc1ccc(Cl)c(-c2nc(-c3c(Cl)cnn3C)c(C)c(N3CC4=C(CN(C(=O)OC)C4)C3)n2)c1 [Example 335],0.00228,0.0305
CNC[C@@H](O)COc1ccc(Cl)c(-c2nc(-c3c(C)noc3C)c(C)c(N3CC4(CCCN(CC(F)F)C4)C3)n2)c1 [Example 337],0.00498,0.06
CNC[C@@H](O)COc1ccc(Cl)c(-c2nc(-c3c(C)noc3C)c(C)c(N3CC4(CCN(C(=O)OC)CC4)C3)n2)c1Cl [Example 338],0.0311,1.82
CNC[C@@H](O)COc1ccc(Cl)c(-c2nc(-c3c(Cl)cnn3C)c(C)c(N3Cc4cnc(N5CCC5)nc4C3)n2)c1 [Example 340],0.002,0.0175
CNC[C@@H](O)COc1ccc(Cl)c(-c2nc(-c3c(Cl)cnn3C)c(C)c(N3Cc4cnn(C)c4C3)n2)c1 [Example 342],0.00274,0.123
CNC[C@@H](O)COc1ccc(Cl)c(-c2nc(-c3c(Cl)cnn3C)c(C)c(N3Cc4cncnc4C3)n2)c1 [Example 344],0.0129,0.713
CNC[C@@H](O)COc1ccc(Cl)c(-c2nc(-c3c(C)c(C#N)nn3C)c(C)c(N3CC4(CCN(C(=O)OC)CC4)C3)n2)c1 [Example 345],0.00566,0.262
CNC[C@@H](O)COc1ccc(Cl)c(-c2nc(-c3c(C)c(C#N)nn3C)c(C)c(N3Cc4cncnc4C3)n2)c1 [Example 346],0.00231,0.14
CNC[C@@H](O)COc1cccc(-c2nc(-c3c(C#N)cnn3C)c(C)c(N3Cc4cccnc4C3)n2)c1 [Example 347],0.0282,> 2

# Continued, values first:
IC50 (Human CARM1 (PRMT4)) [µM],IC50 [1] [µM],SMILES
0.00253,0.0434,CNC[C@@H](O)COc1ccc(Cl)c(-c2nc(-c3c(Cl)cnn3C)c(C)c(N3CC4=C(CN(C(=O)OC)CC4)C3)n2)c1 [Example 334]
0.00303,0.0321,CNC[C@@H](O)COc1ccc(Cl)c(-c2nc(-c3c(Br)cnn3C)c(C)c(N3CC4=C(CN(C(=O)OC)C4)C3)n2)c1 [Example 336]
0.00254,0.0654,CNC[C@@H](O)COc1ccc(Cl)c(-c2nc(-c3c(Cl)cnn3C)c(C)c(N3Cc4cnc(OC)nc4C3)n2)c1 [Example 339]
0.0027,0.184,CNC[C@@H](O)COc1ccc(Cl)c(-c2nc(-c3c(Cl)cnn3C)c(C)c(N3Cc4nccnc4C3)n2)c1 [Example 341]
0.00567,1.67,CNC[C@@H](O)COc1ccc(Cl)c(-c2nc(-c3c(C#N)cnn3C)c(C)c(N3Cc4cccnc4C3)n2)c1 [Example 348]
0.00781,3.11,CNC[C@@H](O)COc1ccc(Cl)c(-c2nc(-c3c(C#N)cnn3C)c(C)c(N3Cc4cncnc4C3)n2)c1 [Example 349]
0.0372,7.2,CNC[C@@H](O)COc1cccc(-c2nc(-c3c(C)noc3C)c(C)c(N3CC4(CCN(C(=O)OC)CC4)C3)n2)c1Cl [Example 350]
